{"source": "patent US20030133920A1", "about": "“Koji molds for preparing cholesterol lowering products” (priority 2000, published 2003)", "key": {"[1]": {"test_system": "cholesterol synthesis in human hepatic T9A4 cells", "assay": "Inhibition test for cholesterol synthesis, 14C-acetate incorporation into cholesterol", "format": "cell-based", "details": "1 mM 14C-acetate, 20 h, liquid fermentation extracts, extract concentration in the medium per row (37-70 μg/ml; lovastatin 0.5 μg/ml)", "protocol": "(§1) The human hepatic T9A4 cells were grown in the serum-free LCM medium (Biofluids, Rockville, Md., USA) under 3.5% CO2 at 37° C. The cells were seeded into 24 well plates and incubated at confluency with 1 mM ^14C-acetate (1 mCi/mmol, Amersham) for 20 h in the absence (control) or in the presence of the fermented extract fractions. Cells were also incubated with 1.17 mM ^14C-mevalonate (0.85 mCi/mmol, Amersham) for 20 h in order to evaluate whether the compounds stemming from the microorganisms to be tested have an inhibitory effect downstream the HMGCoA/Mevalonate conversion step.\n(§2) Lipid extraction was performed twice by incubation with hexane:isopropanol (3:2) for 30 min at room temperature. The combined extracts were dried under N2, redissolved in hexane and subjected to high performance thin layer chromatography (Merck, Darmstadt, Germany) in a solvent mixture of hexane:diethyl ether:acetic acid (75:25:1). The neo-synthesis of cholesterol was determined by measuring the ^14C-acetate incorporation into the cholesterol with an instant imager (Camberra Packard, Zurich, Switzerland) and expressed as percent of the control."}, "[2]": {"test_system": "cholesterol synthesis in human hepatic T9A4 cells", "assay": "Inhibition test for cholesterol synthesis in presence of 14C-mevalonate (downstream of HMGCoA/mevalonate step)", "format": "cell-based", "protocol": "as §1, §2"}}, "data": [{"compound": "CC[C@H](C)C(=O)O[C@H]1C[C@@H](C)C=C2C=C[C@H](C)[C@H](CC[C@@H]3C[C@@H](O)CC(=O)O3)[C@H]21", "note": "[LOVASTATIN, lovastatin]", "values": [{"measurement": "inhibition at 0.5 µg/mL", "setting": "[1]", "value": 56, "unit": "%"}, {"measurement": "inhibitory effect on cholesterol biosynthesis (in words)", "setting": "[2]; T9A4 cells, in presence of 14C-mevalonate", "value": "does not inhibit cholesterol biosynthesis"}, {"measurement": "inhibition at 0.5 µg/mL", "setting": "[2]; human hepatic T9A4 cells, 1.17 mM 14C-mevalonate, 20 h, extract concentration in the medium per row (37-50 μg/ml; lovastatin 0.5 μg/ml)", "value": 0, "unit": "%"}]}]}
